Source: PubChem BioAssay (NCI)
Several values for one entry are separate records, joined by “and”; a condition that tells them apart may be missing. Equal entries are not always repeated.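 Exposure lasted 48 hours, with cells grown in 96-well plates and compounds tested at five concentrations. GI50 marks 50% less growth. TGI marks complete inhibition of growth.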

Assays:
Experiment in all cases: inhibition of tumour cell growth, NCI panel, 48 h
786-0 renal = tested on: 786-0 renal
A498 renal = tested on: A498 renal
A549 NSCLC = tested on: A549 NSCLC
ACHN renal = tested on: ACHN renal
BT-549 breast = tested on: BT-549 breast
CAKI-1 renal = tested on: CAKI-1 renal
CCRF-CEM leukemia = tested on: CCRF-CEM leukemia
COLO 205 colon = tested on: COLO 205 colon
DU-145 prostate = tested on: DU-145 prostate
EKVX NSCLC = tested on: EKVX NSCLC
HCC-2998 colon = tested on: HCC-2998 colon
HCT-116 colon = tested on: HCT-116 colon
HCT-15 colon = tested on: HCT-15 colon
HL-60(TB) leukemia = tested on: HL-60(TB) leukemia
HOP-62 NSCLC = tested on: HOP-62 NSCLC
HOP-92 NSCLC = tested on: HOP-92 NSCLC
HS 578T breast = tested on: HS 578T breast
HT29 colon = tested on: HT29 colon
IGROV1 ovarian = tested on: IGROV1 ovarian
K-562 leukemia = tested on: K-562 leukemia
KM12 colon = tested on: KM12 colon
LOX IMVI melanoma = tested on: LOX IMVI melanoma
M14 melanoma = tested on: M14 melanoma
MALME-3M melanoma = tested on: MALME-3M melanoma
MCF7 breast = tested on: MCF7 breast
MDA-MB-231 breast = tested on: MDA-MB-231 breast
MDA-MB-435 = tested on: MDA-MB-435
MOLT-4 leukemia = tested on: MOLT-4 leukemia
NCI-H226 lung = tested on: NCI-H226 lung
NCI-H23 lung = tested on: NCI-H23 lung
NCI-H460 lung = tested on: NCI-H460 lung
NCI-H522 lung = tested on: NCI-H522 lung
NCI/ADR-RES ovarian = tested on: NCI/ADR-RES ovarian
OVCAR-3 ovarian = tested on: OVCAR-3 ovarian
OVCAR-4 ovarian = tested on: OVCAR-4 ovarian
OVCAR-5 ovarian = tested on: OVCAR-5 ovarian
OVCAR-8 ovarian = tested on: OVCAR-8 ovarian
PC-3 prostate = tested on: PC-3 prostate
RPMI-8226 leukemia = tested on: RPMI-8226 leukemia
RXF 393 renal = tested on: RXF 393 renal
SF-268 CNS = tested on: SF-268 CNS
SF-295 CNS = tested on: SF-295 CNS
SF-539 CNS = tested on: SF-539 CNS
SK-MEL-2 melanoma = tested on: SK-MEL-2 melanoma
SK-MEL-28 melanoma = tested on: SK-MEL-28 melanoma
SK-MEL-5 melanoma = tested on: SK-MEL-5 melanoma
SK-OV-3 ovarian = tested on: SK-OV-3 ovarian
SN12C renal = tested on: SN12C renal
SNB-19 CNS = tested on: SNB-19 CNS
SNB-75 CNS = tested on: SNB-75 CNS
SR leukemia = tested on: SR leukemia
SW-620 colon = tested on: SW-620 colon
T-47D breast = tested on: T-47D breast
TK-10 renal = tested on: TK-10 renal
U251 CNS = tested on: U251 CNS
UACC-257 melanoma = tested on: UACC-257 melanoma
UACC-62 melanoma = tested on: UACC-62 melanoma
UO-31 renal = tested on: UO-31 renal

Compound: CN(C)c1ccc2nc3ccc(=[N+](C)C)cc-3sc2c1
- GI50 (786-0 renal): 2.68 µM and 2.92 µM
- TGI (786-0 renal): 17.6 µM and 27.1 µM
- GI50 (A498 renal): 4.12 µM and 6.21 µM
- TGI (A498 renal): 22 µM and 55.8 µM
- GI50 (A549 NSCLC): 0.236 µM and 0.321 µM
- TGI (A549 NSCLC): 3.3 µM and 12 µM
- GI50 (ACHN renal): 2.65 µM and 3.04 µM
- TGI (ACHN renal): 15.3 µM and 24.1 µM
- GI50 (BT-549 breast): 9.74 µM and 3.26 µM
- TGI (BT-549 breast): 24.2 µM and 22.7 µM
- GI50 (CAKI-1 renal): 2.17 µM and 1.96 µM
- TGI (CAKI-1 renal): 19.4 µM and 8.5 µM
- GI50 (CCRF-CEM leukemia): 0.394 µM and 0.685 µM
- GI50 (COLO 205 colon): 0.497 µM and 0.47 µM
- TGI (COLO 205 colon): 1.96 µM and 5.3 µM
- GI50 (DU-145 prostate): 3.4 µM and 3.86 µM
- TGI (DU-145 prostate): 16 µM and 14.8 µM
- GI50 (EKVX NSCLC): 4.24 µM and 0.804 µM
- TGI (EKVX NSCLC): 28.3 µM and 29.4 µM
- GI50 (HCC-2998 colon): 0.745 µM and 6.32 µM
- TGI (HCC-2998 colon): 17.8 µM and 36 µM
- GI50 (HCT-116 colon): 0.29 µM and 0.373 µM
- TGI (HCT-116 colon): 2.45 µM and 5.76 µM
- GI50 (HCT-15 colon): 0.446 µM and 0.795 µM
- TGI (HCT-15 colon): 18.2 µM and > 100 µM
- GI50 (HL-60(TB) leukemia): 0.0938 µM and 0.187 µM
- TGI (HL-60(TB) leukemia): 2.28 µM and 1.35 µM
- GI50 (HOP-62 NSCLC): 2.47 µM and 4.89 µM
- TGI (HOP-62 NSCLC): 15.9 µM and 21.9 µM
- GI50 (HOP-92 NSCLC): 2.59 µM and 1.74 µM
- TGI (HOP-92 NSCLC): 24.8 µM and 11.1 µM
- GI50 (HS 578T breast): 3.08 µM and 3.62 µM
- TGI (HS 578T breast): > 28.2 µM and 35.6 µM
- GI50 (HT29 colon): 3.41 µM and 4.14 µM
- TGI (HT29 colon): 11.2 µM and 20.8 µM
- GI50 (IGROV1 ovarian): 1.18 µM and 2.03 µM
- TGI (IGROV1 ovarian): 11.5 µM and 6.47 µM
- GI50 (K-562 leukemia): 0.469 µM and 0.509 µM
- TGI (K-562 leukemia): 18.7 µM and 48.5 µM
- GI50 (KM12 colon): 0.724 µM and 0.696 µM
- TGI (KM12 colon): 19.6 µM and 15.7 µM
- GI50 (LOX IMVI melanoma): 0.404 µM and 0.65 µM
- TGI (LOX IMVI melanoma): 7.61 µM and 10.4 µM
- GI50 (M14 melanoma): 0.337 µM and 0.407 µM
- TGI (M14 melanoma): 1.49 µM and 3.4 µM
- GI50 (MALME-3M melanoma): 0.422 µM and 0.848 µM
- TGI (MALME-3M melanoma): 1.77 µM and 3.57 µM
- GI50 (MCF7 breast): 0.304 µM and 0.324 µM
- TGI (MCF7 breast): 12.2 µM and 14.5 µM
- GI50 (MDA-MB-231 breast): 0.512 µM and 1.36 µM
- TGI (MDA-MB-231 breast): 12.9 µM and 16.9 µM
- GI50 (MDA-MB-435): 0.976 µM and 1.46 µM
- TGI (MDA-MB-435): 3.26 µM and 4.02 µM
- GI50 (MOLT-4 leukemia): 1.11 µM and 0.934 µM
- TGI (MOLT-4 leukemia): > 27.6 µM and 15.4 µM
- GI50 (NCI-H226 lung): 1.82 µM and 12.7 µM
- TGI (NCI-H226 lung): 16.6 µM and 36.6 µM
- GI50 (NCI-H23 lung): 0.322 µM and 0.597 µM
- TGI (NCI-H23 lung): 4.99 µM and 12.7 µM
- GI50 (NCI-H460 lung): 0.431 µM and 1.03 µM
- TGI (NCI-H460 lung): 14.9 µM and > 37.5 µM
- GI50 (NCI-H522 lung): 0.232 µM and 0.449 µM
- TGI (NCI-H522 lung): 0.906 µM and 4.5 µM
- GI50 (NCI/ADR-RES ovarian): 0.408 µM and 0.563 µM
- TGI (NCI/ADR-RES ovarian): 23.1 µM and 14.2 µM
- GI50 (OVCAR-3 ovarian): 0.307 µM and 0.3 µM
- TGI (OVCAR-3 ovarian): 1.66 µM
- GI50 (OVCAR-4 ovarian): 0.192 µM and 0.295 µM
- TGI (OVCAR-4 ovarian): 1.25 µM and 3.79 µM
- GI50 (OVCAR-5 ovarian): 0.599 µM and 0.642 µM
- TGI (OVCAR-5 ovarian): 11.3 µM and 17.3 µM
- GI50 (OVCAR-8 ovarian): 0.261 µM and 0.39 µM
- GI50 (PC-3 prostate): 0.161 µM and 0.288 µM
- TGI (PC-3 prostate): 2.71 µM and 16.2 µM
- GI50 (RPMI-8226 leukemia): 0.214 µM and 1.23 µM
- TGI (RPMI-8226 leukemia): 26 µM and 39.6 µM
- GI50 (RXF 393 renal): 2.73 µM and 10.1 µM
- TGI (RXF 393 renal): 18 µM and 27.9 µM
- GI50 (SF-268 CNS): 0.446 µM and 1.08 µM
- TGI (SF-268 CNS): 15.4 µM and 15.1 µM
- GI50 (SF-295 CNS): 0.329 µM and 0.934 µM
- TGI (SF-295 CNS): 10.3 µM and 10.2 µM
- GI50 (SF-539 CNS): 0.139 µM and 0.379 µM
- TGI (SF-539 CNS): 9.82 µM and 14.7 µM
- GI50 (SK-MEL-2 melanoma): 1.44 µM and 0.544 µM
- TGI (SK-MEL-2 melanoma): 3.68 µM and 13.6 µM
- GI50 (SK-MEL-28 melanoma): 1.52 µM and 4.41 µM
- TGI (SK-MEL-28 melanoma): 4.69 µM and 18.2 µM
- GI50 (SK-MEL-5 melanoma): 0.146 µM and 0.39 µM
- TGI (SK-MEL-5 melanoma): 0.412 µM and 1.98 µM
- GI50 (SK-OV-3 ovarian): 2.63 µM and 5.11 µM
- TGI (SK-OV-3 ovarian): 12.6 µM and 25.9 µM
- GI50 (SN12C renal): 0.71 µM and 1.38 µM
- TGI (SN12C renal): 7.05 µM and 12.6 µM
- GI50 (SNB-19 CNS): 0.908 µM and 0.543 µM
- TGI (SNB-19 CNS): 16.3 µM and 46.1 µM
- GI50 (SNB-75 CNS): 1.79 µM and 2.92 µM
- TGI (SNB-75 CNS): 10.1 µM and 17.3 µM
- GI50 (SR leukemia): 1.03 µM and 1.45 µM
- TGI (SR leukemia): 57.7 µM and 46.2 µM
- GI50 (SW-620 colon): 0.344 µM and 0.657 µM
- TGI (SW-620 colon): 13.5 µM and 19.1 µM
- GI50 (T-47D breast): 0.36 µM and 0.558 µM
- TGI (T-47D breast): 3.5 µM and 12.7 µM
- GI50 (TK-10 renal): 3.98 µM and 1.42 µM
- TGI (TK-10 renal): 16.1 µM and 17.2 µM
- GI50 (U251 CNS): 0.248 µM and 0.341 µM
- TGI (U251 CNS): 2.23 µM and 11.2 µM
- GI50 (UACC-257 melanoma): 0.219 µM and 0.411 µM
- TGI (UACC-257 melanoma): 0.711 µM and 2.36 µM
- GI50 (UACC-62 melanoma): 0.808 µM and 2.64 µM
- TGI (UACC-62 melanoma): 2.61 µM and 15.2 µM
- GI50 (UO-31 renal): 3.65 µM and 6.28 µM
- TGI (UO-31 renal): 19.8 µM and 29.1 µM
